Measured values from patent US11098027B2, “Therapeutic heterocyclic compounds” (Gilead Sciences, Inc., priority 2018, dated 2021).
pEC50: −log10 of the molar value.

Molecular target: T1, IDO1 (Homo sapiens, UniProt P14902)
T1 construct: HeLa cells were treated with a test compound in the presence of IFNγ, which induces IDO1 expression; host or cells: H1-HeLa cells, IDO1 induced with IFNγ
Experiment: Cell-based (HeLa) assay for measurement of IDO1 inhibition (kynurenine levels in supernatant)
Details: H1-HeLa cells, IDO1 induced with IFNγ, 48 hour incubation, kynurenine read by absorbance at 480 nm; geometric mean of a minimum of four determinations
Procedure: Example B-1. Cell-Based (HeLa) Assay for Measurement of IDO1 Inhibition
To measure IDO1 inhibition in tissue culture, HeLa cells were treated with a test compound in the presence of IFNγ, which induces IDO1 expression. Following incubation, cell supernatants were assayed for kynurenine levels, an indicator of IDO1 activity.
The following day, the test compounds were added in DMSO (0.5% final) at various concentrations, and IDO1 was inducibly expressed by the addition of 50 uL/well of 50 ng/mL of INFγ (Peprotech #300-02) in cell plating media. As a positive control, 50 uL of the cell plating media without IFNγ was added to several wells. Following a 48 hour incubation, the plates were spun down at 1,200 RPM for 5 min at 10° C. 65 μL/well of the supernatant was then transferred to new 384-well plates (Thermo #262160) that contained 10 uL/well of 30% TCA (Sigma # TO699), and the plates were sealed and incubated at 60° C. for 30 min. The plates were then centrifuged for 15 min at 2,000 RPM at 10° C. 40 μL/well of the supernatant was transferred to new 384-well plates (Thermo #262160) and was reacted with 40 μL/well of 2% (w/v) p-dimethlyaminobenzaldehyde (Sigma #156417) in glacial acetic acid (Sigma #A6283). The reaction was incubated at room temperature for 10 min and absorbance at 480 nm was read using a PerkinElmer Envision plate reader.
Data in Table 1 were normalized based on positive (−IFNγ) and negative (+IFNγ) controls and EC50 values were calculated from the fit of the dose—response curves to a four-parameter equation. All EC50 values represent geometric mean values of a minimum of four determinations. These assays generally produced results within 2-fold of the reported mean

T1 sequence (P14902 whole entry): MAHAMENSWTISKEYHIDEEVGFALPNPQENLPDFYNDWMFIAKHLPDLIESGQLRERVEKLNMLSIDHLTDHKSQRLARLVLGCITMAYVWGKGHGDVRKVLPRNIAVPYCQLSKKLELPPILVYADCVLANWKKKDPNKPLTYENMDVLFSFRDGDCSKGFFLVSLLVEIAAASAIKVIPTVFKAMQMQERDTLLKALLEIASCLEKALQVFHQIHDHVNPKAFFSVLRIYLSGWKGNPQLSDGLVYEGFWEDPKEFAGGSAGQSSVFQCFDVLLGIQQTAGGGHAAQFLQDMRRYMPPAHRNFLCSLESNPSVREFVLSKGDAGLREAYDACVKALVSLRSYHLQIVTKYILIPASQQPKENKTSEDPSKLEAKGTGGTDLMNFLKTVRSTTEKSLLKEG

Row | pEC50 | SMILES
1 | 7.48 | Cc1ccc(-c2cccc3c2C(C)(C)C(=O)N3c2ncccn2)cc1C(=O)Nc1ccc(F)cc1 [Example 9, 5-(3,3-dimethyl-2-oxo-1-(pyrimidin-2-yl)indolin-4-yl)-N-(4-fluorophenyl)-2-methylbenzamide]
2 | 7.51 | CC1(C)C(=O)N(c2ncc[nH]2)c2cccc(-c3ccc(C(F)(F)F)c(C(=O)Nc4ccc(F)cc4)c3)c21 [Example 40, 5-(1-(1H-imidazol-2-yl)-3,3-dimethyl-2-oxoindolin-4-yl)-N-(4-fluorophenyl)-2-(trifluoromethyl)benzamide]
3 | 7.24 | CC1(C)C(=O)N(c2cccnc2)c2nccc(-c3ccc(C(F)(F)F)c(C(=O)Nc4ccc(F)c(F)c4)c3)c21 [Example 32, N-(3,4-difluorophenyl)-5-(3,3-dimethyl-2-oxo-1-(pyridin-3-yl)-2,3-dihydro-1H-pyrrolo[2,3-b]pyridin-4-yl)-2-(trifluoromethyl)benzamide]
4 | 7.72 | Cc1ccc(-c2cccc3c2oc(=O)n3-c2cccnc2)cc1C(=O)Nc1ccc(F)cc1 [Example 34, N-(4-fluorophenyl)-2-methyl-5-(2-oxo-3-(pyridin-3-yl)-2,3-dihydrobenzo[d]oxazol-7-yl)benzamide]
5 | 7.03 | Cc1ncc(-c2cccc3c2C(C)(C)C(=O)N3c2cccnc2)cc1C(=O)Nc1ccc(F)cc1 [Example 13, 5-(3,3-dimethyl-2-oxo-1-(pyridin-3-yl)indolin-4-yl)-N-(4-fluorophenyl)-2-methylnicotinamide]
6 | 7.01 | CC1(C)C(=O)N(c2ncccn2)c2cccc(-c3ccc(C(F)(F)F)c(C(=O)Nc4cccnc4)c3)c21 [Example 21, 5-(3,3-dimethyl-2-oxo-1-(pyrimidin-2-yl)indolin-4-yl)-N-(pyridin-3-yl)-2-(trifluoromethyl)benzamide]
7 | 7.96 | CC1(C)C(=O)N(c2cnccn2)c2cccc(-c3ccc(C(F)(F)F)c(C(=O)Nc4ccc(F)cc4)c3)c21 [Example 4, 5-(3,3-dimethyl-2-oxo-1-(pyrazin-2-yl)indolin-4-yl)-N-(4-fluorophenyl)-2-(trifluoromethyl)benzamide]
8 | 7.80 | CC1(C)C(=O)N(c2cn[nH]c2)c2cccc(-c3ccc(C(F)(F)F)c(C(=O)Nc4ccc(F)cc4)c3)c21 [Example 18, 5-(3,3-dimethyl-2-oxo-1-(1H-pyrazol-4-yl)indolin-4-yl)-N-(4-fluorophenyl)-2-(trifluoromethyl)benzamide]
9 | 7.39 | CC1(C)C(=O)N(c2c[nH]cn2)c2cccc(-c3ccc(C(F)(F)F)c(C(=O)Nc4ccc(F)cc4)c3)c21 [Example 11, 5-(1-(1H-imidazol-4-yl)-3,3-dimethyl-2-oxoindolin-4-yl)-N-(4-fluorophenyl)-2-(trifluoromethyl)benzamide]
10 | 7.18 | Cc1ncc(-c2cccc3c2C(C)(C)C(=O)N3c2ccccn2)cc1C(=O)Nc1ccc(F)cc1 [Example 12, 5-(3,3-dimethyl-2-oxo-1-(pyridin-2-yl)indolin-4-yl)-N-(4-fluorophenyl)-2-methylnicotinamide]
11 | 8.00 | CC1(C)C(=O)N(c2ncccn2)c2cccc(-c3ccc(C(F)(F)F)c(C(=O)Nc4ccc(F)cc4)c3)c21 [Compound 1, 5-(3,3-dimethyl-2-oxo-1-(pyrimidin-2-yl)indolin-4-yl)-N-(4-fluorophenyl)-2-(trifluoromethyl)benzamide]
12 | 7.44 | CC1(C)C(=O)N(c2cncc(F)c2)c2cccc(-c3cnc(C(F)(F)F)c(C(=O)Nc4ccc(F)cc4)c3)c21 [Example 20, N-(4-fluorophenyl)-5-(1-(5-fluoropyridin-3-yl)-3,3-dimethyl-2-oxoindolin-4-yl)-2-(trifluoromethyl)nicotinamide]
13 | 7.04 | O=C(Nc1ccc(F)cc1)c1cc(-c2cccc3c2C2(CCC2)C(=O)N3c2ncccn2)ccc1C(F)(F)F [Example 33, N-(4-fluorophenyl)-5-(2′-oxo-1′-(pyrimidin-2-yl)spiro[cyclobutane-1,3′-indolin]-4′-yl)-2-(trifluoromethyl)benzamide]
14 | 7.20 | CC1(C)C(=O)N(c2ccccn2)c2nccc(-c3ccc(C(F)(F)F)c(C(=O)Nc4ccc(F)c(F)c4)c3)c21 [Example 27, N-(3,4-difluorophenyl)-5-(3,3-dimethyl-2-oxo-1-(pyridin-2-yl)-2,3-dihydro-1H-pyrrolo[2,3-b]pyridin-4-yl)-2-(trifluoromethyl)benzamide]
15 | 6.55 | CC1(C)C(=O)N(c2ncccn2)c2cccc(-c3ccc(C(F)(F)F)c(C(=O)Nc4ccnnc4)c3)c21 [Example 46, 5-(3,3-dimethyl-2-oxo-1-(pyrimidin-2-yl)indolin-4-yl)-N-(pyridazin-4-yl)-2-(trifluoromethyl)benzamide]
16 | 7.44 | CC1(C)C(=O)N(c2ccccn2)c2nccc(-c3ccc(C(F)(F)F)c(C(=O)Nc4ccc(F)cn4)c3)c21 [Example 28, 5-(3,3-dimethyl-2-oxo-1-(pyridin-2-yl)-2,3-dihydro-1H-pyrrolo[2,3-b]pyridin-4-yl)-N-(5-fluoropyridin-2-yl)-2-(trifluoromethyl)benzamide]
17 | 6.28 | Cc1ncc(-c2cccc3c2C(C)(C)C(=O)N3c2cnccn2)cc1C(=O)Nc1ccc(F)cc1 [Example 15, 5-(3,3-dimethyl-2-oxo-1-(pyrazin-2-yl)indolin-4-yl)-N-(4-fluorophenyl)-2-methylnicotinamide]
18 | 7.96 | CC1(C)C(=O)N(c2ccccn2)c2cccc(-c3ccc(C(F)(F)F)c(C(=O)Nc4ccc(F)cc4)c3)c21 [Example 2, 5-(3,3-dimethyl-2-oxo-1-(pyridin-2-yl)indolin-4-yl)-N-(4-fluorophenyl)-2-(trifluoromethyl)benzamide]
19 | 6.09 | CC1(C)C(=O)N(c2ncccn2)c2cccc(-c3ccc(C(F)(F)F)c(C(=O)Nc4cncnc4)c3)c21 [Example 47, 5-(3,3-dimethyl-2-oxo-1-(pyrimidin-2-yl)indolin-4-yl)-N-(pyrimidin-5-yl)-2-(trifluoromethyl)benzamide]
20 | 7.77 | CC1(C)C(=O)N(c2ncccn2)c2cccc(-c3cnc(C(F)(F)F)c(C(=O)Nc4ccc(F)cc4)c3)c21 [Example 35, 5-(3,3-dimethyl-2-oxo-1-(pyrimidin-2-yl)indolin-4-yl)-N-(4-fluorophenyl)-2-(trifluoromethyl)nicotinamide]
21 | 7.14 | CC1(C)C(=O)N(c2ncccn2)c2cccc(-c3ccc(C(F)(F)F)c(C(=O)Nc4ccncn4)c3)c21 [Example 48, 5-(3,3-dimethyl-2-oxo-1-(pyrimidin-2-yl)indolin-4-yl)-N-(pyrimidin-4-yl)-2-(trifluoromethyl)benzamide]
22 | 6.31 | CC1(C)Oc2c(-c3ccc(C(F)(F)F)c(C(=O)Nc4ccc(F)cc4)c3)cccc2N(c2ccccn2)C1=O [Example 52, 5-(2,2-dimethyl-3-oxo-4-(pyridin-2-yl)-3,4-dihydro-2H-benzo[b][1,4]oxazin-8-yl)-N-(4-fluorophenyl)-2-(trifluoromethyl)benzamide]
23 | 5.99 | Cc1ccc(-c2cccc3c2C(C)(C)C(=O)N3Cc2ncccn2)cc1C(=O)Nc1ccc(F)cc1 [Example 53, 5-(3,3-dimethyl-2-oxo-1-(pyrimidin-2-ylmethyl)indolin-4-yl)-N-(4-fluorophenyl)-2-methylbenzamide]
24 | 7.62 | CC1(C)C(=O)N(c2ncccn2)c2cccc(-c3ccc(C(F)(F)F)c(C(=O)Nc4ccc(F)c(F)c4)c3)c21 [Example 30, N-(3,4-difluorophenyl)-5-(3,3-dimethyl-2-oxo-1-(pyrimidin-2-yl)indolin-4-yl)-2-(trifluoromethyl)benzamide]
25 | 7.59 | CC1(C)C(=O)N(c2cccnc2)c2cccc(-c3cnc(C(F)(F)F)c(C(=O)Nc4ccc(F)cc4)c3)c21 [Example 36, 5-(3,3-dimethyl-2-oxo-1-(pyridin-3-yl)indolin-4-yl)-N-(4-fluorophenyl)-2-(trifluoromethyl)nicotinamide]
26 | 6.09 | CC1(C)C(=O)N(Cc2ncccn2)c2cccc(-c3ccc(C(F)(F)F)c(C(=O)Nc4ccc(F)cc4)c3)c21 [Example 16, 5-(3,3-dimethyl-2-oxo-1-(pyrimidin-2-ylmethyl)indolin-4-yl)-N-(4-fluorophenyl)-2-(trifluoromethyl)benzamide]
27 | 7.39 | CC1(C)C(=O)N(c2ccncn2)c2cccc(-c3cnc(C(F)(F)F)c(C(=O)Nc4ccc(F)c(F)c4)c3)c21 [Example 51, N-(3,4-difluorophenyl)-5-(3,3-dimethyl-2-oxo-1-(pyrimidin-4-yl)indolin-4-yl)-2-(trifluoromethyl)nicotinamide]
28 | 7.49 | Cc1ccc(-c2cccc3c2C(C)(C)C(=O)N3c2ncccn2)c(F)c1C(=O)Nc1ccc(F)cc1 [Example 45, 3-(3,3-dimethyl-2-oxo-1-(pyrimidin-2-yl)indolin-4-yl)-2-fluoro-N-(4-fluorophenyl)-6-methylbenzamide]
